The target in assay [1] is T1, hNav1.7 (Homo sapiens (Human), UniProt Q15858). As to the kind of experiment: Tritiated compound binding to membranes from cells expressing hNav1.7 and the β1 subunit, modified protocol (LBA, Ex. 243B). Particulars: 300 pM [3H]compound, room temperature, read-out: Nav1.7 LBA (Ex. 243B) IC50.
Target sequence in this assay (Q15858 whole entry, looked up): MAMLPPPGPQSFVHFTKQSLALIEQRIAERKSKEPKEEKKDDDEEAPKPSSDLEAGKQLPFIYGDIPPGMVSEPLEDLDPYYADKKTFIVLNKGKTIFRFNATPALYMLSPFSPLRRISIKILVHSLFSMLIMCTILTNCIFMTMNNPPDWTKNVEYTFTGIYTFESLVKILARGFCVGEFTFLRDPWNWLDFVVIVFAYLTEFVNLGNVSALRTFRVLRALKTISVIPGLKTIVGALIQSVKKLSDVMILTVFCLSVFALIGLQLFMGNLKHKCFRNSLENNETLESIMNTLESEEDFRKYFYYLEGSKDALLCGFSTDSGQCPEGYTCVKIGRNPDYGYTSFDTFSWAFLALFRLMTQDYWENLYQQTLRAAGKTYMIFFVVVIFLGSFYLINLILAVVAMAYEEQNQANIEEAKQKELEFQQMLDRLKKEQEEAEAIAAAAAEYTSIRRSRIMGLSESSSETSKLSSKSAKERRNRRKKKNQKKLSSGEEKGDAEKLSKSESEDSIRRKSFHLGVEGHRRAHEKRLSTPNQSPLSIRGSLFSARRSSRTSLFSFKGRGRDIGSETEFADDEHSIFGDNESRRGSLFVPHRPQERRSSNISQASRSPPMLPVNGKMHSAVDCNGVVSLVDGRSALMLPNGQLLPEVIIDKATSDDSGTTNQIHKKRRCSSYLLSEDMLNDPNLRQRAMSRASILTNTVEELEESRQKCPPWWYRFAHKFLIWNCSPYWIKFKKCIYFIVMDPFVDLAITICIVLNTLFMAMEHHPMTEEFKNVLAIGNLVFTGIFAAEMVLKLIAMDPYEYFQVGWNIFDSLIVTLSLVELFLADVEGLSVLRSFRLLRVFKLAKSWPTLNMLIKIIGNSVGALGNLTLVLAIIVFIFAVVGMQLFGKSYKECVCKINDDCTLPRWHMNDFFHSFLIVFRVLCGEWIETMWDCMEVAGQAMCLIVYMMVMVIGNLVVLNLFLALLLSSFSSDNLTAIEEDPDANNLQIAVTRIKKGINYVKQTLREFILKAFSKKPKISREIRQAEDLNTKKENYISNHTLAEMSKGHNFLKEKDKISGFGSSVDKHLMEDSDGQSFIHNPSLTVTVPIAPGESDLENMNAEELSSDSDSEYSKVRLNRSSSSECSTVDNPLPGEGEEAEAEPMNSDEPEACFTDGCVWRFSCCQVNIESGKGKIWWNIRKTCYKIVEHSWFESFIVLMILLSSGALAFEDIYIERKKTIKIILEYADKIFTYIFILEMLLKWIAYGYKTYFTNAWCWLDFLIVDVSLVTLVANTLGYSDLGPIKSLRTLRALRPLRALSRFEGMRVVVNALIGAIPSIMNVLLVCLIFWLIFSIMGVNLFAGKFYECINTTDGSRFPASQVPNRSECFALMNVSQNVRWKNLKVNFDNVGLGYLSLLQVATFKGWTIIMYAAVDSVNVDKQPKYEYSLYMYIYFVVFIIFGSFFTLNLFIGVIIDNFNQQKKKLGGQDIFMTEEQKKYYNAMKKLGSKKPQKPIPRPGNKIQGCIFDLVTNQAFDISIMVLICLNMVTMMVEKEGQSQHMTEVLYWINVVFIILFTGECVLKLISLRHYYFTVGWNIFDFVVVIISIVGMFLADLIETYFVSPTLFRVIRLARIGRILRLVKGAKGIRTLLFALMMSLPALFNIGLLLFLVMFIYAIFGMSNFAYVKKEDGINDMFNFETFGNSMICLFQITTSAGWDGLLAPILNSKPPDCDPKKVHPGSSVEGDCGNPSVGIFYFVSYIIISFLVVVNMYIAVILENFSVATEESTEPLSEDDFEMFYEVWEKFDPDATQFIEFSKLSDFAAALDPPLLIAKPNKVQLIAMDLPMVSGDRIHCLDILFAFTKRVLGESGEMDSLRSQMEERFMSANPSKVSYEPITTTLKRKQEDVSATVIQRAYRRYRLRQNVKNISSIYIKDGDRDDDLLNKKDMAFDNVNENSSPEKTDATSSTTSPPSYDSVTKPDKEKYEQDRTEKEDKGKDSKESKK
Target sequence in this assay (Q07699 whole entry partner, looked up): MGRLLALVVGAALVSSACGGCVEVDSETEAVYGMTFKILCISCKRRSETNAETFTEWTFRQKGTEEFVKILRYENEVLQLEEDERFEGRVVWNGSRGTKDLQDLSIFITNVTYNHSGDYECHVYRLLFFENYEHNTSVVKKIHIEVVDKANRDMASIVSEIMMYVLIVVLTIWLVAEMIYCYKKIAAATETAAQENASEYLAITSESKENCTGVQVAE
In assay [2] the target is T1, hNav1.7. As to the kind of experiment: Patch voltage clamp electrophysiology assay (EP), Syncropatch 384PE, CHO cells expressing Nav1.7. Type of assay: cell-based. Particulars: read-out: EP_SP hNav1.7 (Ex. 243B) IC50. As for the experimental part: Electrophysiological Assay (EP) (In Vitro Assay)
The following voltage clamp electrophysiology studies were performed on representative compounds using cells heterologously expressing Nav1.7 or Nav1.5 channels. cDNAs for Nav1.7 (NM_002977) and Nav1.5 (AC137587) were stably expressed in Chinese Hamstr Ovary (CHO) cells and CHL (Chinese Hamster Lung) cells respectively. […] Internal solution consists of (in mM): 110 […], 10 […], 20 EGTA, and 10 Hepes (pH adjusted to 7.2); and external solution contains (in mM): 60 NMDG, 80 NaCl, 4 KCl, 1 MgCl2, 2 CaCl2, 2 D-Glucose monohydrate, 10 Hepes (pH adjusted to 7.4 with NaOH).
The chip is moved into the measuring head and the instrument primes the chip with external and internal solutions. […] cells are added to the chip from a cell hotel, and a negative pressure of −50 mBar is applied to form a seal. Following treatment with seal enhancer solution and wash-off with external solution, negative pressure of −250 mbar is applied for 1 second to achieve the whole-cell configuration, followed by three washing steps in external solution. 20 μl of compounds is added to 40 μl in each well (1:3 dilution of compounds), and after mixing, 20 μl is removed so the volume is retained at 40 μl.
For voltage protocol, an holding potential of −50 mV is applied during the whole experiment. A depolarizing step is applied to −10 mV for 10 ms, followed by a hyperpolarization step to −150 mV for 20 ms to allow channel recovery from inactivation. A second depolarizing step is applied from −150 mV to −10 mV for 10 ms, where currents were measured to derive blocking effects of compounds. Inhibition is determined based on 7.5 min of compound incubation.
Target sequence in this assay (Q15858 other isoform, or with tags, fused parts or gaps): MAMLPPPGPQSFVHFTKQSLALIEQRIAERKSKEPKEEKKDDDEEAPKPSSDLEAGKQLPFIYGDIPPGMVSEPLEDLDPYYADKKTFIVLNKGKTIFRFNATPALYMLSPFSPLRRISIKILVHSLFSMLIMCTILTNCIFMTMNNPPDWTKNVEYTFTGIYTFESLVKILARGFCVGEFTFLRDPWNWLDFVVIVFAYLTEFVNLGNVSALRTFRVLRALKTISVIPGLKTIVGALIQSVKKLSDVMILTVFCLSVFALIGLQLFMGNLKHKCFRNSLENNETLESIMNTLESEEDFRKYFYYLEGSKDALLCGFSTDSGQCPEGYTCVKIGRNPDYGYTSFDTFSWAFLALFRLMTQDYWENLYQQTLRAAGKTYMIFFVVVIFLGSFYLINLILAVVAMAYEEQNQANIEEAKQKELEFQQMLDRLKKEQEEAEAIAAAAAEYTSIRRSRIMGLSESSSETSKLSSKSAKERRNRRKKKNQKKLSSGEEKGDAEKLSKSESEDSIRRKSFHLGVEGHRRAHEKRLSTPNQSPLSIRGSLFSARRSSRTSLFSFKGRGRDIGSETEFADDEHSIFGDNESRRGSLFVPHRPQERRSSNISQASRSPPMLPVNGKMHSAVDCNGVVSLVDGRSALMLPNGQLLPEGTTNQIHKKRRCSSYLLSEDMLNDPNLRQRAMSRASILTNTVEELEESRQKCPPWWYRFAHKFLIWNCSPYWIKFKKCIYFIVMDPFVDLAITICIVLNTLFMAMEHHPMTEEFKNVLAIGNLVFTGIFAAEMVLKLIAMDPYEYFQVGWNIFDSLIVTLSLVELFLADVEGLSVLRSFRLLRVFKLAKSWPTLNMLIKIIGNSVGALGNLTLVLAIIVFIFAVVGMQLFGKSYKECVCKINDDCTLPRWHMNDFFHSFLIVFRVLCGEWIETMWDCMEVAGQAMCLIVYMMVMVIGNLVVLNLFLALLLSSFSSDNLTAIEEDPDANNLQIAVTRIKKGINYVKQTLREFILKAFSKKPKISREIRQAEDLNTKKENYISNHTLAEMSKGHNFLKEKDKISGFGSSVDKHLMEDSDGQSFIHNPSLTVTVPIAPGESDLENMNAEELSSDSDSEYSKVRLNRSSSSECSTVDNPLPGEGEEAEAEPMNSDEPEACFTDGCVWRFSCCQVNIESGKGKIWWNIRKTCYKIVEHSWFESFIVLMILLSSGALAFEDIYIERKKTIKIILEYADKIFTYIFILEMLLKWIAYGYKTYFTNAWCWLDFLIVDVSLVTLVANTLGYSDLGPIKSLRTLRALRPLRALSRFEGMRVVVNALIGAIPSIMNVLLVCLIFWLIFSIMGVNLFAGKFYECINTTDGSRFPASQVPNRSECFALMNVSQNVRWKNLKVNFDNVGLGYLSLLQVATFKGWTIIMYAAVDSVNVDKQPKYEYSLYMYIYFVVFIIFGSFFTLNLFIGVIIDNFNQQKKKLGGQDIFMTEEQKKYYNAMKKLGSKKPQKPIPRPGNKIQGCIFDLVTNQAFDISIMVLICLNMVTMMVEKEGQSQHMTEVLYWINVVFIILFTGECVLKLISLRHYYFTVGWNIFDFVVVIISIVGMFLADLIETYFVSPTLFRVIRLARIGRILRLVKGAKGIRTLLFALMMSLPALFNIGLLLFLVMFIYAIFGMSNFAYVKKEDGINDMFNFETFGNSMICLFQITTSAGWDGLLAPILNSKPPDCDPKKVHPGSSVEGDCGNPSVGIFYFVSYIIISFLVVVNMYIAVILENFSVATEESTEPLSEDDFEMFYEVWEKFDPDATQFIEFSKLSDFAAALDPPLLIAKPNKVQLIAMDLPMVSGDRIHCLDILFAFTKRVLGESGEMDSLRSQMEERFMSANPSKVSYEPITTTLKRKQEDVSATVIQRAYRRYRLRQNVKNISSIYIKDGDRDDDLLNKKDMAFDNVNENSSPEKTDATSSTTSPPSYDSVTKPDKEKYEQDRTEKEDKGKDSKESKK

Setting [3] is: holding potential -50 mV, […] compound incubation.

Structures can show the parent of a compound that is named as a salt.

Consider 23 compounds from US10457654B2 (GENENTECH, INC., priority 2017, dated 2019).

For `O=S(=O)(Nc1nccs1)c1cc(Cl)c(N[C@H]2CCCC[C@@H]2N2CC3CC3C2)cc1F` (stereo partly drawn) [Example 160, 4-(((1S,2S)-2-(3-azabicyclo[3.1.0]hexan-3-yl)cyclohexyl)amino)-5-chloro-2-fluoro-N-(thiazol-2-yl)benzenesulfonamide], the figures for the IC50 on hNav1.7 [1] and at hNav1.7 [2] were 20.3 nM and 2.27 nM, respectively.
Take `CN(C)[C@H]1C[C@@H](c2cccc(C(F)(F)F)c2)CC[C@@H]1Nc1ccc(S(=O)(=O)Nc2ccncn2)c(F)c1` [Example 237, 4-(((1S,2S,4S)-2-(Dimethylamino)-4-(3-(trifluoromethyl)phenyl)cyclohexyl)amino)-2-fluoro-N-(pyrimidin-4-yl)benzenesulfonamide formate]: the IC50 was 2.43 nM at hNav1.7 [1] and 1.07 nM at hNav1.7 [2] (setting [3]).
On to `CN(C)[C@@H]1CC(F)(F)CC[C@H]1Nc1cc(F)c(S(=O)(=O)Nc2nccs2)cc1Cl` [Example 188, 5-chloro-4-(((1R,2R)-2-(dimethylamino)-4,4-difluorocyclohexyl)amino)-2-fluoro-N-(thiazol-2-yl)benzenesulfonamide formate], for which the IC50 came out at 2000 nM on hNav1.7 [1] and 684 nM on hNav1.7 [2] (setting [3]).
`O=S(=O)(Nc1ccncn1)c1cc(Cl)c(N[C@@H]2CCCC[C@H]2N2CC3C(C2)C3(F)F)cc1F` (stereo partly drawn) [Example 182, 5-chloro-4-(((1R,2R)-2-(6,6-difluoro-3-azabicyclo[3.1.0]hexan-3-yl)cyclohexyl)amino)-2-fluoro-N-(pyrimidin-4-yl)benzenesulfonamide]: the half-maximal inhibitory concentration (IC50) worked out at 2000 nM at hNav1.7 [1] and 1520 nM on hNav1.7 [2] (setting [3]).
The like results for `CN(CC(O)C(F)F)[C@H]1CCCC[C@@H]1Nc1cc(F)c(S(=O)(=O)Nc2nccs2)cc1Cl` (single isomer, unassigned) [Example 126] were, in that order, 87.6 nM and 9.25 nM.
With `CN(CCCF)[C@H]1CCCC[C@@H]1Nc1cc(F)c(S(=O)(=O)Nc2nccs2)cc1Cl` [Example 135, 5-chloro-2-fluoro-4-(((1S,2S)-2-((3-fluoropropyl)(methyl)amino)cyclohexyl)amino)-N-(thiazol-2-yl)benzenesulfonamide], the IC50 came to 313 nM on hNav1.7 [1] and 32.8 nM at hNav1.7 [2] (setting [3]).
For the compound `CN(C(=O)C(C)(C)N(C)C)[C@H]1CCCC[C@@H]1Nc1cc(F)c(S(=O)(=O)Nc2nccs2)cc1Cl` [Example 198, N-((1S,2S)-2-((2-Chloro-5-fluoro-4-(N-(thiazol-2-yl)sulfamoyl)phenyl)amino)-cyclohexyl)-2-(dimethylamino)-N,2-dimethylpropanamide], the IC50 came to 817 nM on hNav1.7 [1] and 65.8 nM on hNav1.7 [2] (setting [3]).
As for `CN(CCO)[C@H]1CCCC[C@@H]1Nc1cc(F)c(S(=O)(=O)Nc2cccc(F)n2)cc1C1CC1` [Example 128, 5-Cyclopropyl-2-fluoro-N-(6-fluoropyridin-2-yl)-4-(((1S,2S)-2-((2-hydroxyethyl)(methyl)amino)cyclohexyl)amino)benzenesulfonamide formate], the values for the IC50 at hNav1.7 [1] and on hNav1.7 [2] (setting [3]) were 22.8 nM and 9.56 nM, respectively.
Turning to `CN(C)[C@H]1C[C@H]2C[C@H]2C[C@@H]1Nc1cc(F)c(S(=O)(=O)Nc2nccs2)cc1Cl` [Example 214, 5-Chloro-4-(((1S,3S,4S,6R)-4-(dimethylamino)bicyclo[4.1.0]heptan-3-yl)amino)-2-fluoro-N-(thiazol-2-yl)benzenesulfonamide], the concentration for half-maximal inhibition (IC50) at hNav1.7 [1] worked out at 53.1 nM; at hNav1.7 [2] (setting [3]), 2.09 nM.
The like results for `CN(CCC#N)[C@H]1CCCC[C@@H]1Nc1cc(F)c(S(=O)(=O)Nc2nccs2)cc1Cl` [Example 125, 5-Chloro-4-(((1S,2S)-2-((2-cyanoethyl)(methyl)amino)cyclohexyl)amino)-2-fluoro-N-(thiazol-2-yl)benzenesulfonamide] were, in that order, 204 nM and 7.53 nM.
On the same counts, the results for `CN(C)[C@H]1CC2C(C[C@@H]1Nc1cc(F)c(S(=O)(=O)Nc3nccs3)cc1Cl)C2(F)F` (stereo in doubt) [Example 207, 5-Chloro-4-(((1S,3S,4S,6R)-4-(dimethylamino)-7,7-difluorobicyclo[4.1.0]heptan-3-yl)amino)-2-fluoro-N-(thiazol-2-yl)benzenesulfonamide] are 1600 nM and 203 nM.
On to `CN(CCC(C)(C)O)[C@H]1CCCC[C@@H]1Nc1cc(F)c(S(=O)(=O)Nc2cccc(F)n2)cc1Cl` [Example 124, 5-chloro-2-fluoro-N-(6-fluoropyridin-2-yl)-4-(((1S,2S)-2-((3-hydroxy-3-methylbutyl)(methyl)amino)cyclohexyl)amino)benzenesulfonamide], for which the results for the IC50 at hNav1.7 [1] and on hNav1.7 [2] (setting [3]) were 1230 nM and 107 nM, respectively.
Consider `CN1CC(N(CC(F)(F)F)[C@H]2CCCC[C@@H]2Nc2cc(F)c(S(=O)(=O)Nc3nccs3)cc2Cl)C1` [Example 190, 5-Chloro-2-fluoro-4-(((1S,2S)-2-((1-methylazetidin-3-yl)(2,2,2-trifluoroethyl)amino)cyclohexyl)amino)-N-(thiazol-2-yl)benzenesulfonamide], for which the results for the IC50 at hNav1.7 [1] and on hNav1.7 [2] (setting [3]) were 478 nM and 41.5 nM, respectively.
Take `O=S(=O)(Nc1nccs1)c1cc(Cl)c(N[C@@H]2CCCC[C@H]2N2CC3CC3C2)cc1F` (stereo partly drawn) [Example 159, 4-(((1R,2R)-2-(3-azabicyclo[3.1.0]hexan-3-yl)cyclohexyl)amino)-5-chloro-2-fluoro-N-(thiazol-2-yl)benzenesulfonamide]: the 50% inhibitory concentration (IC50) worked out at 1790 nM on hNav1.7 [1] and 202 nM on hNav1.7 [2].
Take `O=S(=O)(Nc1nccs1)c1cc(Cl)c(N[C@H]2CCCC[C@@H]2N2CCC(F)CC2)cc1F` [Example 113, 5-chloro-2-fluoro-4-(((1S,2S)-2-(4-fluoropiperidin-1-yl)cyclohexyl)amino)-N-(thiazol-2-yl)benzenesulfonamide]: the IC50 on hNav1.7 [1] was 185 nM; on hNav1.7 [2] (setting [3]), 11.7 nM.
On to `O=S(=O)(Nc1ccncn1)c1cc(Cl)c(N[C@H]2CC[C@H](c3cccc(C(F)(F)F)c3)C[C@@H]2N2CCCC2)cc1F` [Example 242, 5-chloro-2-fluoro-N-(pyrimidin-4-yl)-4-(((1S,2S,4S)-2-(pyrrolidin-1-yl)-4-(3 (trifluoromethyl)phenyl)cyclohexyl)amino)benzenesulfonamide], for which the IC50 turned out to be 0.428 nM on hNav1.7 [1] and 0.182 nM on hNav1.7 [2] (setting [3]).
`CN(C)[C@H]1C[C@@H]2C[C@@H]2C[C@@H]1Nc1cc(F)c(S(=O)(=O)Nc2nccs2)cc1Cl` [Example 216]: the half-inhibitory concentration (IC50) at hNav1.7 [1] was 72.1 nM; at hNav1.7 [2] (setting [3]), 4.77 nM.
Consider `CN(C)[C@H]1C[C@@H](c2cccc(C(F)(F)F)c2)CC[C@@H]1Nc1cc(F)c(S(=O)(=O)Nc2nccs2)cc1Cl` [Example 129, 5-chloro-4-(((1S,2S,4S)-2-(dimethylamino)-4-(3-(trifluoromethyl)phenyl)cyclohexyl)amino)-2-fluoro-N-(thiazol-2-yl)benzenesulfonamide formate], for which the results for the IC50 on hNav1.7 [1] and on hNav1.7 [2] (setting [3]) were 0.255 nM and 0.372 nM, respectively.
For `CN[C@H]1C[C@@H](c2cccc(C(F)(F)F)c2)CC[C@@H]1Nc1cc(F)c(S(=O)(=O)Nc2ccncn2)cc1Cl` [Example 226, 5-Chloro-2-fluoro-4-(((1S,2S,4S)-2-(methylamino)-4-(3-(trifluoromethyl)phenyl)cyclohexyl)amino)-N-(pyrimidin-4-yl)benzenesulfonamide], the figures for the IC50 on hNav1.7 [1] and on hNav1.7 [2] (setting [3]) were 1.45 nM and 1.04 nM, respectively.
On to `CN(CCCO)[C@H]1CCCC[C@@H]1Nc1cc(F)c(S(=O)(=O)Nc2cccc(F)n2)cc1Cl` [Example 122, 5-chloro-2-fluoro-N-(6-fluoropyridin-2-yl)-4-(((1S,2S)-2-((3-hydroxypropyl)(methyl)amino)cyclohexyl)amino)benzenesulfonamide], for which the IC50 at hNav1.7 [1] worked out at 205 nM; on hNav1.7 [2] (setting [3]), 33.6 nM.
`O=S(=O)(Nc1nccs1)c1cc(Cl)c(N[C@H]2CCCC[C@@H]2N2CCC[C@@H](CO)C2)cc1F` [Example 169, 5-chloro-2-fluoro-4-(((1S,2S)-2-((R)-3-(hydroxymethyl)piperidin-1-yl)cyclohexyl)amino)-N-(thiazol-2-yl)benzenesulfonamide formate]: the IC50 on hNav1.7 [1] stood at 7.56 nM; at hNav1.7 [2] (setting [3]), 3.34 nM.
With `CN1CCC(N(C)[C@H]2CCCC[C@@H]2Nc2cc(F)c(S(=O)(=O)Nc3cccc(F)n3)cc2Cl)CC1` [Example 109, 5-chloro-2-fluoro-N-(6-fluoropyridin-2-yl)-4-(((1S,2S)-2-(methyl(1-methylpiperidin-4-yl)amino)cyclohexyl)amino)benzenesulfonamide], the results for the 50% inhibitory concentration (IC50) at hNav1.7 [1] and on hNav1.7 [2] (setting [3]) were 50.7 nM and 8.68 nM, respectively.
Regarding `CN(C)[C@H]1C[C@@H](c2cccc(C(F)(F)F)c2)CC[C@@H]1Nc1cc(F)c(S(=O)(=O)Nc2ccncn2)cc1C1CC1` [Example 230, 5-Cyclopropyl-4-(((1S,2S,4S)-2-(dimethylamino)-4-(3-(trifluormethyl)phenyl)cyclohexyl)amino)-2-fluoro-N-(pyrimidin-4-yl)benzenesulfonamide formate], the IC50 at hNav1.7 [1] was found to be 0.627 nM; on hNav1.7 [2] (setting [3]), 1.52 nM.

The term IC50 denotes the concentration at which inhibition is half-maximal.
